{"source": "paper doi:10.1101/2023.12.04.569845", "about": "“Identification of 4-(6-((2-methoxyphenyl)amino)pyrazin-2-yl)benzoic acids as CSNK2A inhibitors with antiviral activity and improved selectivity over PIM3” (bioRxiv, 2023)", "assay_in_all_cases": "biochemical", "key": {"CSNK2a2": {"target": "T1, CSNK2a2 (Homo sapiens, UniProt P19784)", "T1 construct": "kinase domain", "parameters": "Thermal shift (DSF, SYPRO Orange) Tm shift of recombinant kinase domains at 10 uM compound"}, "ABL1": {"target": "ABL1 (Homo sapiens, UniProt P00519)", "sequence (P00519 whole entry, the tested form may be a part)": "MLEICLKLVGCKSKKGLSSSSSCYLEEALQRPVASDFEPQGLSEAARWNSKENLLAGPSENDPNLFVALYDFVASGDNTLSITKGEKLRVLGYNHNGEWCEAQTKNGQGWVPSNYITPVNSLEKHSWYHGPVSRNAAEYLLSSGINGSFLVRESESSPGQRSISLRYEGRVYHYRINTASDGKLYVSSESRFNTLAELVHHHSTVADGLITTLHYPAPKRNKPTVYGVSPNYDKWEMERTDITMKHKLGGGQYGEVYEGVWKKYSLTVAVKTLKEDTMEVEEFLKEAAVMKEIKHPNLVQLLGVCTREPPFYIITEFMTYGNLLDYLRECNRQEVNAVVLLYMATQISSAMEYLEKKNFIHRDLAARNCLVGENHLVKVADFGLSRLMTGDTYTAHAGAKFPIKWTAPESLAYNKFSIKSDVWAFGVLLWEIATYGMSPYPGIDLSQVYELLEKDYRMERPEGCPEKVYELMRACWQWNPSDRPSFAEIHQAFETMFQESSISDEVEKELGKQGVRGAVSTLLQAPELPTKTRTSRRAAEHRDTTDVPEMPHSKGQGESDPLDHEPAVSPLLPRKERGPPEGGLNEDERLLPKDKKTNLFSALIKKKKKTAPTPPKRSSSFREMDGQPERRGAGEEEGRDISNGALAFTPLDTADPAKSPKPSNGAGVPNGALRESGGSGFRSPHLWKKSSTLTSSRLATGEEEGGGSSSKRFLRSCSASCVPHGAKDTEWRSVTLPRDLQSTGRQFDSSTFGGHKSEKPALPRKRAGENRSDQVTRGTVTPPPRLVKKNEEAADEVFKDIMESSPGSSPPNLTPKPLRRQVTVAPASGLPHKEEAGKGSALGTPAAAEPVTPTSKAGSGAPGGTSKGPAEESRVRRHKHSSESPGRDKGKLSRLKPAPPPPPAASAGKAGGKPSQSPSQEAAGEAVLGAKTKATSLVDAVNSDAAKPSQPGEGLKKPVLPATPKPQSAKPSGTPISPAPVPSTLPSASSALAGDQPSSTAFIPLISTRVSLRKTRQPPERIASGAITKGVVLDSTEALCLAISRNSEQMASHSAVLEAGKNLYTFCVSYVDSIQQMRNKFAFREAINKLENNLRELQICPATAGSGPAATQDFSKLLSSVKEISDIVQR", "parameters": "Thermal shift (DSF, SYPRO Orange) Tm shift of recombinant kinase domains at 10 uM compound"}, "WNK1": {"target": "WNK1 (Homo sapiens, UniProt Q9H4A3)", "sequence (Q9H4A3 whole entry, the tested form may be a part)": "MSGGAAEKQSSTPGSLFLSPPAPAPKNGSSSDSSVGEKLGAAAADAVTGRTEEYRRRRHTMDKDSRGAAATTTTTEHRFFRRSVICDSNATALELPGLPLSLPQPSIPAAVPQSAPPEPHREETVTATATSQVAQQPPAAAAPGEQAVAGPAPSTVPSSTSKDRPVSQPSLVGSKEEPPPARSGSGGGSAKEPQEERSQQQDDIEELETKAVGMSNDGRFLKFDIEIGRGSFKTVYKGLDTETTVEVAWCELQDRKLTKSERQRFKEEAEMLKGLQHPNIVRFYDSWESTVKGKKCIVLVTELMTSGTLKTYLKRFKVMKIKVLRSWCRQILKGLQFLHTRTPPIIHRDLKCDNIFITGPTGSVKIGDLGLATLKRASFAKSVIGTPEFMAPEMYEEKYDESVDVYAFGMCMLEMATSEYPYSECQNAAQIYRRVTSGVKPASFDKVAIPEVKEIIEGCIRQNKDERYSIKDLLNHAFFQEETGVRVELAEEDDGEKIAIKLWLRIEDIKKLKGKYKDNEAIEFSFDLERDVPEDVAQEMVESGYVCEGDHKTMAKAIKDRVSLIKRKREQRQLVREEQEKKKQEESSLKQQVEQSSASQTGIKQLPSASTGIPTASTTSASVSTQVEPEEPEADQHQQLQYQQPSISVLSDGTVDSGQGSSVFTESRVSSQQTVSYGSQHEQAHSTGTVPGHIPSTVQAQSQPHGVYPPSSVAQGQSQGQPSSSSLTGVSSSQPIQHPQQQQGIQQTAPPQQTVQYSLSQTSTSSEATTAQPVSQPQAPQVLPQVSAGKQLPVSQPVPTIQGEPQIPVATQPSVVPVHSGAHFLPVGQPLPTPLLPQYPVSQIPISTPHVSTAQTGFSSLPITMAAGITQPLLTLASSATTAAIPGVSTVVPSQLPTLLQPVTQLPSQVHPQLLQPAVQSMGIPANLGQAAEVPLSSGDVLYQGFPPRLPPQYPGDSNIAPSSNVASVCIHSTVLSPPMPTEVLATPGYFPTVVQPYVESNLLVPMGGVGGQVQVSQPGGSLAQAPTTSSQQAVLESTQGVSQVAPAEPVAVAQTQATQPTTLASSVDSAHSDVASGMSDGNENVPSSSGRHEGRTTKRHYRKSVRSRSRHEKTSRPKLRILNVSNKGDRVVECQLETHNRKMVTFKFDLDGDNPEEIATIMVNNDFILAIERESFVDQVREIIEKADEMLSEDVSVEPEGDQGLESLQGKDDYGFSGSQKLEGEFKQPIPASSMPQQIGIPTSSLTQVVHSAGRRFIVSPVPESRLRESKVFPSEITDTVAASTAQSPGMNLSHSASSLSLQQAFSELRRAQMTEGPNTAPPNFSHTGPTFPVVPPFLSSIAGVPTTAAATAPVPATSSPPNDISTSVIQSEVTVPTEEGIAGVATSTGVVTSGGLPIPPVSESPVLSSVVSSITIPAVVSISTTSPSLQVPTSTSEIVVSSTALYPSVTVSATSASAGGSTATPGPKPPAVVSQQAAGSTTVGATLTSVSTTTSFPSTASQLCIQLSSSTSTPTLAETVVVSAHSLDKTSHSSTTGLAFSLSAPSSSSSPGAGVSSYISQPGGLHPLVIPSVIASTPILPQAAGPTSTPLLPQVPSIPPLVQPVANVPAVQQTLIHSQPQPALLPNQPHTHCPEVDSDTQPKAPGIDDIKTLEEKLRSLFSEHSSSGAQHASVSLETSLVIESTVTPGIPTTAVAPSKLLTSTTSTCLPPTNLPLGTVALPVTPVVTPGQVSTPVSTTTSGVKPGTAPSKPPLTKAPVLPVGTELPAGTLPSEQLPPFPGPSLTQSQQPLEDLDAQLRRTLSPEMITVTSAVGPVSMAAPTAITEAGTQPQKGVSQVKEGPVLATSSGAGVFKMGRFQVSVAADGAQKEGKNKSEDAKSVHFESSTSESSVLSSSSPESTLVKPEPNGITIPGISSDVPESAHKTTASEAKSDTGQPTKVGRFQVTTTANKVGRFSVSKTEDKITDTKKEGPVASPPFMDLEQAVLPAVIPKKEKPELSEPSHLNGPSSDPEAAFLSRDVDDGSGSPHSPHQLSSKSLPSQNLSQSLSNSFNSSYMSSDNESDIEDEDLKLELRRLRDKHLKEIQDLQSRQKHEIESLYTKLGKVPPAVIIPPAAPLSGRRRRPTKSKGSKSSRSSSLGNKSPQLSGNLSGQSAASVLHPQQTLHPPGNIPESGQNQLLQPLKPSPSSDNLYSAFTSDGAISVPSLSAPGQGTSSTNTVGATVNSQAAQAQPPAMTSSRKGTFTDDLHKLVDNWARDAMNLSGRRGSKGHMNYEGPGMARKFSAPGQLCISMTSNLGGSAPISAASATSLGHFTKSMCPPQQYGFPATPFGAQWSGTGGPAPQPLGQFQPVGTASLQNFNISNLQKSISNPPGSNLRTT", "parameters": "Thermal shift (DSF, SYPRO Orange) Tm shift of recombinant kinase domains at 10 uM compound"}, "MST4": {"target": "T2, MST4 (Homo sapiens, UniProt Q9P289)", "T2 construct": "gene STK26", "T2 sequence (Q9P289 whole entry, the tested form may be a part)": "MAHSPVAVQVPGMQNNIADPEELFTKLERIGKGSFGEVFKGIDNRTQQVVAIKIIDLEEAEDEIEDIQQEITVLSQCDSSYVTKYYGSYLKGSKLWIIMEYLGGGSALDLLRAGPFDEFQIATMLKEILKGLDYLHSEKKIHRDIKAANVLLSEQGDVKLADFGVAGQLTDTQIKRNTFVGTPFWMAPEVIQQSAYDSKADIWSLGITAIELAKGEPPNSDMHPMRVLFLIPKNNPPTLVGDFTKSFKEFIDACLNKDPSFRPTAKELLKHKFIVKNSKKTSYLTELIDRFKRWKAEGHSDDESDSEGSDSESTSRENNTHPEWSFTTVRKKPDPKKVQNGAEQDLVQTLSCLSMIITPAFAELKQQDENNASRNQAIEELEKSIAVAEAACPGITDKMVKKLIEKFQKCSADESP", "parameters": "Thermal shift (DSF, SYPRO Orange) Tm shift of recombinant kinase domains at 10 uM compound"}, "JNK1": {"target": "T3, JNK1 (Homo sapiens, UniProt P45983)", "T3 construct": "gene MAPK8", "T3 sequence (P45983 whole entry, the tested form may be a part)": "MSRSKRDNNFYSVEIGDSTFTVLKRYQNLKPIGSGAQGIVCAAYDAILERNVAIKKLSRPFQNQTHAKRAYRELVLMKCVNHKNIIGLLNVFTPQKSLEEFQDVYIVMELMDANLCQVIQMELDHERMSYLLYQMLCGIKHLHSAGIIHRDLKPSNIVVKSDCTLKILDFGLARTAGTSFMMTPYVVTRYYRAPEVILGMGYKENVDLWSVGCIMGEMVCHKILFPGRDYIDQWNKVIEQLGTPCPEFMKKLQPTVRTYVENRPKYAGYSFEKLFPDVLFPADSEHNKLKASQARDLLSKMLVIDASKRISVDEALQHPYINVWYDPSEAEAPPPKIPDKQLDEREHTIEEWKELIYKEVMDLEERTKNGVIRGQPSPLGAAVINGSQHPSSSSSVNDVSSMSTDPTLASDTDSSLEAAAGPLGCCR", "parameters": "Thermal shift (DSF, SYPRO Orange) Tm shift of recombinant kinase domains at 10 uM compound"}, "MAPK15": {"target": "T4, MAPK15 (Homo sapiens, UniProt Q8TD08)", "T4 sequence (Q8TD08 1-544)": "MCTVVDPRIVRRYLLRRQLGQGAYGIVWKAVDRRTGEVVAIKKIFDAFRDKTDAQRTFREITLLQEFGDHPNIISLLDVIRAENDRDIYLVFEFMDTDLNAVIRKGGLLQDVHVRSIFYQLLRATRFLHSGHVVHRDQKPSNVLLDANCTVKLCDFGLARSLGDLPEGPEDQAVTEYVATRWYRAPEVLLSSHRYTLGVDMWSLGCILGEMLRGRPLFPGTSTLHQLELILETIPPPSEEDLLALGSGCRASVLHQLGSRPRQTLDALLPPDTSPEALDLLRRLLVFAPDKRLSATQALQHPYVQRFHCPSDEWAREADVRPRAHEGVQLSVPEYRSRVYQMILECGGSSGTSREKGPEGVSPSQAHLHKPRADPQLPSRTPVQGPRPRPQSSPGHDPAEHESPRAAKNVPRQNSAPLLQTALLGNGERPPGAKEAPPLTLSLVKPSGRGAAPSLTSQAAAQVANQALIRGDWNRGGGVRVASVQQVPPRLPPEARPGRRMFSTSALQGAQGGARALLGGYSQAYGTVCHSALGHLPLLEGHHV", "parameters": "Thermal shift (DSF, SYPRO Orange) Tm shift of recombinant kinase domains at 10 uM compound"}, "MSSK1": {"target": "T5, MSSK1 (Homo sapiens, UniProt Q9UPE1)", "T5 construct": "gene SRPK3", "T5 sequence (Q9UPE1 whole entry, the tested form may be a part)": "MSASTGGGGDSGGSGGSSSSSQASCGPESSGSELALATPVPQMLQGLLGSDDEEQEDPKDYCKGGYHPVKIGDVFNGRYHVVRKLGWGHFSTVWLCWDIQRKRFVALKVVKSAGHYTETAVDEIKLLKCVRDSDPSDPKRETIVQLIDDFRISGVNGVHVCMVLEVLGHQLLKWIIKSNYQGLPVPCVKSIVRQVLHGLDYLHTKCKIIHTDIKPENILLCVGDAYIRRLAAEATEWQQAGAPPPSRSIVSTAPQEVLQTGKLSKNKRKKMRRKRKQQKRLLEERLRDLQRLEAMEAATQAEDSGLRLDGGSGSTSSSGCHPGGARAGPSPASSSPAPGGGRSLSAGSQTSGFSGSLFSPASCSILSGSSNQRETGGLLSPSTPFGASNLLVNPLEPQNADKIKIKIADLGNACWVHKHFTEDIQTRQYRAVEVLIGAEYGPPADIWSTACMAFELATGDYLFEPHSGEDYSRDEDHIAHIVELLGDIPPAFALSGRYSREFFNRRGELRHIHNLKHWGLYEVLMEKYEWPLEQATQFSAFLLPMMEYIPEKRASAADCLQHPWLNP", "parameters": "Thermal shift (DSF, SYPRO Orange) Tm shift of recombinant kinase domains at 10 uM compound"}, "TIF1": {"target": "T6, TIF1 (Homo sapiens, UniProt O15164)", "T6 construct": "gene TRIM24", "T6 sequence (O15164 1-1050)": "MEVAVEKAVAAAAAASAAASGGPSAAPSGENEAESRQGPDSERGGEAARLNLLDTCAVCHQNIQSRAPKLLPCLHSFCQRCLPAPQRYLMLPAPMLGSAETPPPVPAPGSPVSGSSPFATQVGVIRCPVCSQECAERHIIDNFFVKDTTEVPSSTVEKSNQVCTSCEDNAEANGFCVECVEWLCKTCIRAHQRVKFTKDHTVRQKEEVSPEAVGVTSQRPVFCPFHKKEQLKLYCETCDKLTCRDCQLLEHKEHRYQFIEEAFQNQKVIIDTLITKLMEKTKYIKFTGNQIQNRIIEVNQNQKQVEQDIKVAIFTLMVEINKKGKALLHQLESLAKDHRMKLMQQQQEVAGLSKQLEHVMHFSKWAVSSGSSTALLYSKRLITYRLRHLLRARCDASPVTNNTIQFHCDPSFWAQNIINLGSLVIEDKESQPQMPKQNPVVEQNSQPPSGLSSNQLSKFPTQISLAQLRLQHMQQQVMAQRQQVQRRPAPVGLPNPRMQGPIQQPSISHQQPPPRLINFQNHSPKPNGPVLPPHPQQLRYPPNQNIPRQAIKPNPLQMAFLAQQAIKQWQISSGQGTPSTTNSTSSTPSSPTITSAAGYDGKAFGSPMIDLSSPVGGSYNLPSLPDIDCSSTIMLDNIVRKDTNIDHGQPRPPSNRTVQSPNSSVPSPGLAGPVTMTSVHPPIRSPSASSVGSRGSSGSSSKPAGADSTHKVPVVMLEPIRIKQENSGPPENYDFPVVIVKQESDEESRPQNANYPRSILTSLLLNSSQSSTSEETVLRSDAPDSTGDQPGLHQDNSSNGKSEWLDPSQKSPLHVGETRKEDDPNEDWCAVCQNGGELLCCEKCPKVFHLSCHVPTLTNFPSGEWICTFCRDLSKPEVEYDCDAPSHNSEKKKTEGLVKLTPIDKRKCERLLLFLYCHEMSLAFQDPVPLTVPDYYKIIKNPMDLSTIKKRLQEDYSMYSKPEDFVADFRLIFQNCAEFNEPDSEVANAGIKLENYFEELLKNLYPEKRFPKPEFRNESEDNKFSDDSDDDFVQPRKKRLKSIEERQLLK", "parameters": "Thermal shift assay (SYPRO Orange DSF) of recombinant kinase domains; Tm shift", "description": "(§1) S23 Thermal stability kinase selectivity. The assay was performed as previously described. 9,10 Briefly, recombinant protein kinase domains at a concentration of 2 μM were mixed with 10 μM compound in a buffer containing 20 mM HEPES, pH 7.5, and 500 mM NaCl. SYPRO Orange (5000×, Invitrogen) was added as a fluorescence probe (1 µl per mL). Subsequently, temperature-dependent protein unfolding profiles were measured using the QuantStudio™ 5 realtime PCR machine (Thermo Fisher). Excitation and emission filters were set to 465 nm and 590 nm, respectively. The temperature was raised with a step rate of 3°C per minute. Data points were analysed with the internal software (Thermal Shift SoftwareTM Version 1.4, Thermo Fisher) using the Boltzmann equation to determine the inflection point of the transition curve."}, "ATK3": {"target": "T7, ATK3 (Homo sapiens, UniProt Q9Y243)", "T7 construct": "gene AKT3; kinase domain", "parameters": "Thermal shift assay (SYPRO Orange DSF) of recombinant kinase domains; Tm shift", "description": "as §1"}}, "note": "Read-outs that look alike come from different tables or passages of the source."}
{"smiles": "CC(C)Nc1ccc2cnn(-c3cncc(-c4ccc(C(=O)O)cc4)n3)c2c1", "note": "[compound 2, 2]", "values": [{"measurement": "ΔTm at 10 µM", "setting": "CSNK2a2; read-out: 2", "value": 15, "unit": "°C"}, {"measurement": "ΔTm at 10 µM", "setting": "ABL1; read-out: 2", "value": 7, "unit": "°C"}, {"measurement": "ΔTm at 10 µM", "setting": "WNK1; read-out: 2", "value": 1, "unit": "°C"}, {"measurement": "ΔTm at 10 µM", "setting": "MST4; read-out: 2", "value": 3, "unit": "°C"}, {"measurement": "ΔTm at 10 µM", "setting": "JNK1; read-out: 2", "value": 6, "unit": "°C"}, {"measurement": "ΔTm at 10 µM", "setting": "MAPK15; read-out: 2", "value": 12, "unit": "°C"}, {"measurement": "ΔTm at 10 µM", "setting": "MSSK1; read-out: 2", "value": 3, "unit": "°C"}, {"measurement": "ΔTm at 10 µM", "setting": "TIF1; read-out: 2", "value": 0, "unit": "°C"}, {"measurement": "ΔTm at 10 µM", "setting": "ATK3; read-out: 2", "value": 1, "unit": "°C"}]}
{"smiles": "COc1ccc(OC(C)C)cc1Nc1cncc(-c2ccc(C(=O)O)cc2)n1", "note": "[7c]", "values": [{"measurement": "ΔTm at 10 µM", "setting": "CSNK2a2; read-out: 7c", "value": 15, "unit": "°C"}, {"measurement": "ΔTm at 10 µM", "setting": "ABL1; read-out: 7c", "value": 7, "unit": "°C"}, {"measurement": "ΔTm at 10 µM", "setting": "WNK1; read-out: 7c", "value": 0, "unit": "°C"}, {"measurement": "ΔTm at 10 µM", "setting": "MST4; read-out: 7c", "value": -1, "unit": "°C"}, {"measurement": "ΔTm at 10 µM", "setting": "JNK1; read-out: 7c", "value": 1, "unit": "°C"}, {"measurement": "ΔTm at 10 µM", "setting": "MAPK15; read-out: 7c", "value": 10, "unit": "°C"}, {"measurement": "ΔTm at 10 µM", "setting": "MSSK1; read-out: 7c", "value": 1, "unit": "°C"}, {"measurement": "ΔTm at 10 µM", "setting": "TIF1; read-out: 7c", "value": -1, "unit": "°C"}, {"measurement": "ΔTm at 10 µM", "setting": "ATK3; read-out: 7c", "value": -1, "unit": "°C"}]}
{"smiles": "CC(C)Oc1ccc2ccn(-c3cncc(-c4ccc(C(=O)O)cc4)n3)c2c1", "note": "[6c]", "values": [{"measurement": "ΔTm at 10 µM", "setting": "CSNK2a2; read-out: 6c", "value": 16, "unit": "°C"}, {"measurement": "ΔTm at 10 µM", "setting": "ABL1; read-out: 6c", "value": 8, "unit": "°C"}, {"measurement": "ΔTm at 10 µM", "setting": "WNK1; read-out: 6c", "value": 2, "unit": "°C"}, {"measurement": "ΔTm at 10 µM", "setting": "MST4; read-out: 6c", "value": -4, "unit": "°C"}, {"measurement": "ΔTm at 10 µM", "setting": "JNK1; read-out: 6c", "value": 3, "unit": "°C"}, {"measurement": "ΔTm at 10 µM", "setting": "MAPK15; read-out: 6c", "value": 15, "unit": "°C"}, {"measurement": "ΔTm at 10 µM", "setting": "MSSK1; read-out: 6c", "value": 1, "unit": "°C"}, {"measurement": "ΔTm at 10 µM", "setting": "TIF1; read-out: 6c", "value": -2, "unit": "°C"}, {"measurement": "ΔTm at 10 µM", "setting": "ATK3; read-out: 6c", "value": -1, "unit": "°C"}]}
